Measured values published in patent US9828386B2 (priority 2013, dated 2017).
Like-named read-outs stand apart in the source and are kept apart here.

Key:
Assay in all cases: cells
Type in all cases: cell-based
A549 cell line = settings: read-out: IC50 (μM) A549
Protocol: (§1) Test of compounds of embodiment of the present invention on inhibiting tumor cell activity
(§2) 3, cell lines: A549, BGC823, Hela cell line and normal human hepatocytes which are available from Wu Han boster Co., Ltd.;
(§3) A549, BGC823, Hela cell line and normal human hepatocytes in logarithmic growth phase are subjected to 1000 rpm centrifugation for 5 min, supernatant is then discarded, moderate medium is suspended, the cell concentration is adjusted to 3.5×10^4/well, the cells were seeded in 96-wells culture plate, and following experimental groups are set:
(§4) a negative control group; 35 test groups with same concentration (ie: groups of Compound (1) to Compound (35)); three control groups: groups of podophyllotoxin, 4′-demethylepipodophyllotoxin and etoposide.
(§5) Taking RPMI1640 containing 10% of calf serum as nutrient solution, 0.10 mL of cells per well is incubated under conditions of 37° C., 5% CO2 and saturated humidity for 24 h to nearly be covered, then the nutrient solution is discarded. […] 100 μl of DMSO is added to each well, then vibrated at 37° C. by shaker table for 30 min, then measuring absorbance (OD) at 492 nm, calculating MTT ratio=OD value of drug group/OD value of the negative control group.

BGC823 cell line = settings: read-out: IC50 (μM) BGC823
Protocol: as §1, §2, §3, §4, §5

Hela cell line = settings: read-out: IC50 (μM) Hela
Protocol: as §1, §2, §3, §4, §5

[1] = A549 cells, MTT, 48 h cultivation
[2] = BGC823 cells, MTT, 48 h cultivation
[3] = Hela cells, MTT, 48 h cultivation

`COc1cc(C2c3cc4c(cc3C(Sc3nc5ccccc5o3)C3COC(=O)C23)OCO4)cc(OC)c1O` (stereo not drawn) [Compound 31, 4-S-(benzoxazole-2)-4-deoxy-4′-demethylepipodophyllotoxin] was tested, and the IC50 (A549 cell line; [1]) was 1.46 ± 0.89 µM, the IC50 (BGC823 cell line; [2]) was 1.36 ± 0.2 µM and the IC50 (Hela cell line; [3]) was 0.13 ± 0.01 µM.

Compound `COc1cc(C2c3cc4c(cc3C(Sc3n[nH]c(NS(=O)(=O)c5ccc(C)cc5)n3)C3COC(=O)C23)OCO4)cc(OC)c1O` (stereo not drawn) [Compound 32, 4-S-[3-N-(4-methyl-benzenesulfonamide-)-1,2,4-triazole-5-]-4-deoxy-4′-demethylepipodophyllotoxin] has an IC50 (A549 cell line; [1]) of 1.67 ± 0.28 µM, an IC50 (BGC823 cell line; [2]) of 0.67 ± 0.22 µM and an IC50 (Hela cell line; [3]) of 0.53 ± 0.17 µM.

Compound `COc1ccc(S(=O)(=O)Nc2nc(SC3c4cc5c(cc4C(c4cc(OC)c(O)c(OC)c4)C4C(=O)OCC34)OCO5)n[nH]2)cc1` (stereo not drawn) [Compound 33, 4-S-[3-N-(4-methoxy-benzenesulfonamide-)-1,2,4-triazole-5-]-4-deoxy-4′-demethylepipodophyllotoxin] has an IC50 (A549 cell line; [1]) of 1.37 ± 2.15 µM, an IC50 (BGC823 cell line; [2]) of 1.27 ± 0.53 µM and an IC50 (Hela cell line; [3]) of 1.56 ± 0.88 µM.

`COc1cc(C2c3cc4c(cc3C(Sc3nnc(NS(=O)(=O)c5ccc(C)cc5)s3)C3COC(=O)C23)OCO4)cc(OC)c1O` (stereo not drawn) [Compound 34, 4-S-[2-N-(4-methyl-benzenesulfonamide-)-1,3,4-thiadiazole-5-]-4-deoxy-4′-demethylepipodophyllotoxin] was tested, and the IC50 (A549 cell line; [1]) was 5.89 ± 0.74 µM, the IC50 (BGC823 cell line; [2]) was 0.85 ± 0.43 µM and the IC50 (Hela cell line; [3]) was 2.11 ± 0.34 µM.

`COc1ccc(S(=O)(=O)Nc2nnc(SC3c4cc5c(cc4C(c4cc(OC)c(O)c(OC)c4)C4C(=O)OCC34)OCO5)s2)cc1` (stereo not drawn) [Compound 35, 4-S-[2-N-(4-methoxy-benzenesulfonamide-)-1,3,4-thiadiazole-5-]-4-deoxy-4′-demethylepipodophyllotoxin] showed an IC50 (A549 cell line; [1]) of 0.84 ± 0.62 µM, an IC50 (BGC823 cell line; [2]) of 2.23 ± 0.69 µM and an IC50 (Hela cell line; [3]) of 1.19 ± 0.57 µM.

Compound `COc1cc([C@@H]2c3cc4c(cc3[C@H](O)[C@H]3COC(=O)[C@H]23)OCO4)cc(OC)c1OC` [podophyllotoxin, reference compound] has an IC50 (A549 cell line; Homo sapiens, A549, 48 h) of 67.18 ± 0.24 µM, an IC50 (BGC823 cell line; Homo sapiens, BGC-823, 48 h) of 75.81 ± 0.73 µM and an IC50 (Hela cell line; Homo sapiens, HeLa, 48 h) of 55.53 ± 0.24 µM.
